# Results taken from ChEMBL document CHEMBL1201862, “PubChem BioAssay data set” (2004).
#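 All cell lines were grown in 96-well plates and treated with compound for 48 hours. At the GI50, growth is halved.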 The source made the active and inactive calls. Cut-off read from the data, not from the text of the source: active = GI50 up to about 1.1 µM and inactive = higher.
# Columns and labels:
# Test in all cases: growth of human tumour cells (NCI), 48 h
# [1] = system: SK-OV-3
# [2] = system: EKVX
# [3] = system: NCI/ADR-RES
# [4] = system: UACC-62
# [5] = system: SN12C
# [6] = system: HOP-62
# [7] = system: 786-0
# [8] = system: T47D
# [9] = system: SK-MEL-5
# [10] = system: SF-268
# [11] = system: SW-620
# [12] = system: OVCAR-5
# [13] = system: A549
# [14] = system: MCF7
# [15] = system: NCI-H23
# [16] = system: CAKI-1
# [17] = system: M14
# [18] = system: NCI-H226
# [19] = system: UO-31
# [20] = system: MOLT-4
# [21] = system: OVCAR-4
# [22] = system: KM12
# [23] = system: ACHN
# [24] = system: IGROV-1
# [25] = system: UACC-257
# [26] = system: HCT-15
# [27] = system: PC-3
# [28] = system: MDA-MB-435
# [29] = system: K562
# [30] = system: HOP-92
# [31] = system: SK-MEL-2
# [32] = system: HCC 2998
# [33] = system: SF-295
# [34] = system: U-251
# [35] = system: SF-539
# [36] = system: SK-MEL-28
# [37] = system: LOX IMVI
# [38] = system: Malme-3M
# [39] = system: MDA-N
# [40] = system: DU-145
# [41] = system: COLO 205
# [42] = system: BT-549
# [43] = system: TK-10
# [44] = system: OVCAR-8
# [45] = system: A498
# [46] = system: HL-60
# [47] = system: Hs-578T
# [48] = system: HCT-116
# [49] = system: HT-29
# [50] = system: CCRF-CEM
# [51] = system: SNB-19
# [52] = system: SNB-75
# [53] = system: OVCAR-3
# [54] = system: NCI-H460
# [55] = system: NCI-H522
# [56] = system: MDA-MB-231
# [57] = system: RPMI-8226
# [58] = system: SR
structure (smiles),measurement,setting,value
COC(=O)C(Cc1ccccc1)NP(=O)(O)OCC1OC(n2ccc(N)nc2=O)C(O)C1O (stereo not drawn),GI50,[1],> 100 µM (inactive)
same,GI50,[2],> 100 µM (inactive)
same,GI50,[3],> 100 µM (inactive)
same,GI50,[4],> 100 µM (inactive)
same,GI50,[5],> 100 µM (inactive)
same,GI50,[6],> 100 µM (inactive)
same,GI50,[7],> 100 µM (inactive)
same,GI50,[8],> 100 µM (inactive)
same,GI50,[9],> 100 µM (inactive)
same,GI50,[10],> 100 µM (inactive)
same,GI50,[11],> 100 µM (inactive)
same,GI50,[12],> 100 µM (inactive)
same,GI50,[13],> 100 µM (inactive)
same,GI50,[14],> 100 µM (inactive)
same,GI50,[15],> 100 µM (inactive)
same,GI50,[16],> 100 µM (inactive)
same,GI50,[17],> 100 µM (inactive)
same,GI50,[18],> 100 µM (inactive)
same,GI50,[19],> 100 µM (inactive)
same,GI50,[20],76 µM (inactive)
same,GI50,[21],> 100 µM (inactive)
same,GI50,[22],> 100 µM (inactive)
same,GI50,[23],> 100 µM (inactive)
same,GI50,[24],> 100 µM (inactive)
same,GI50,[25],> 100 µM (inactive)
same,GI50,[26],> 100 µM
same,GI50,[27],> 100 µM (inactive)
same,GI50,[28],> 100 µM (inactive)
same,GI50,[29],> 100 µM (inactive)
same,GI50,[30],> 100 µM (inactive)
same,GI50,[31],> 100 µM (inactive)
same,GI50,[32],> 100 µM (inactive)
same,GI50,[33],> 100 µM (inactive)
same,GI50,[34],> 100 µM (inactive)
same,GI50,[35],> 100 µM (inactive)
same,GI50,[36],> 100 µM (inactive)
same,GI50,[37],> 100 µM (inactive)
same,GI50,[38],> 100 µM (inactive)
same,GI50,[39],> 100 µM (inactive)
same,GI50,[40],> 100 µM (inactive)
same,GI50,[41],> 100 µM (inactive)
same,GI50,[42],> 100 µM (inactive)
same,GI50,[43],40.8 µM (inactive)
same,GI50,[44],> 100 µM (inactive)
same,GI50,[45],> 100 µM (inactive)
same,GI50,[46],> 100 µM (inactive)
same,GI50,[47],> 100 µM (inactive)
same,GI50,[48],> 100 µM (inactive)
same,GI50,[49],> 100 µM (inactive)
same,GI50,[50],50.9 µM (inactive)
same,GI50,[51],> 100 µM (inactive)
same,GI50,[52],> 100 µM (inactive)
same,GI50,[53],> 100 µM (inactive)
same,GI50,[54],> 100 µM (inactive)
same,GI50,[55],> 100 µM (inactive)
same,GI50,[56],> 100 µM (inactive)
same,GI50,[57],> 100 µM (inactive)
same,GI50,[58],66.1 µM (inactive)
